Publication PMC11364104, “Discovery of SARS-CoV-2 papain-like protease (PL^pro) inhibitors with efficacy in a murine infection model” (Science Advances, 2024)
pEC50, pIC50: −log10 of the molar value.

Assays:
GABAa1 Receptor = molecular target: T1, GABAa1 Receptor (Homo sapiens, UniProt P14867); assay: CEREP ion channel-binding
T1 construct: purchased Eurofins Cerep

Monoamine Oxidase = assay: CEREP enzyme inhibition; type: biochemical; conditions: 30 µM
[1] = RRCK passive permeability; conditions: dog, MDCK
[2] = molecular target: T2, Glucocorticoid Receptor (Binding) (Homo sapiens, UniProt P04150); assay: CEREP NHR-binding
T2 construct: purchased Eurofins Cerep
T2 sequence (P04150 whole entry): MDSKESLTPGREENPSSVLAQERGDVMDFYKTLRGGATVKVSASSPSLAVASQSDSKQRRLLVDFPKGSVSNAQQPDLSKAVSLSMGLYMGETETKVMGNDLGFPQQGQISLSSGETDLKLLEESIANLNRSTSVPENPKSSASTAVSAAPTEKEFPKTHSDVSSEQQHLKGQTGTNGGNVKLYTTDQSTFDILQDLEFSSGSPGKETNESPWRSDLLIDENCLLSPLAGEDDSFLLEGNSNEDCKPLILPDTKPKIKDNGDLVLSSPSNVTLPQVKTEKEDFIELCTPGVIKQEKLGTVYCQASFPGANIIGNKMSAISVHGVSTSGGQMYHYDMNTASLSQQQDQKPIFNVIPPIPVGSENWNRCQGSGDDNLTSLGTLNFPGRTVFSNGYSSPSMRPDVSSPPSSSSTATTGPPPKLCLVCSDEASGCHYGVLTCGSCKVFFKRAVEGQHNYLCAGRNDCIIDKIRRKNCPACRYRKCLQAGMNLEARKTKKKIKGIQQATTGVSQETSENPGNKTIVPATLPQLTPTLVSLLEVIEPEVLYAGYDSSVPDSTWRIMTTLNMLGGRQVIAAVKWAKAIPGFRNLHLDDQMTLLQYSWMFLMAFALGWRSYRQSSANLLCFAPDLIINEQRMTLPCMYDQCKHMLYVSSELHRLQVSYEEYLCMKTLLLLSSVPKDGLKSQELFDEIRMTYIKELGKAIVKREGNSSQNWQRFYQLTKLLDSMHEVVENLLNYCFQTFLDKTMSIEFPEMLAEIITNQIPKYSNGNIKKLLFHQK

[3] = test system: SARS-CoV-2 strain USA-WA1/2020; assay: dNHBE (human airway epithelial) cell infection model; type: cell-based; conditions: Severe acute respiratory syndrome coronavirus 2, Epithelial cell; dNHBE (human airway epithelial) cells; plaque assay 3 dpi
Human Cathepsin V = molecular target: T3, Human Cathepsin V (Homo sapiens, UniProt O60911); assay: biochemical
T3 construct: assay run at Reaction Biology Corporation
T3 sequence (O60911 114-334): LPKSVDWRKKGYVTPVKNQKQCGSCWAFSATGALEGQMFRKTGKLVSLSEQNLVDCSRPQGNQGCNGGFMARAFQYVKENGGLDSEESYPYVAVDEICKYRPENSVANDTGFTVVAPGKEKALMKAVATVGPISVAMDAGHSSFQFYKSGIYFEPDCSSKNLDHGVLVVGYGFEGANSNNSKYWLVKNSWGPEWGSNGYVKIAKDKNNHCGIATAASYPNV

[4] = molecular target: T4, human Cav1.2/β2a/α2δ1 calcium channel (Homo sapiens, UniProt Q13936); assay: hCav1.2 automated patch clamp; type: cell-based; conditions: read-out: CaV IC50
T4 construct: assay run at Metrion Biosciences Ltd; host or cells: HEK
Method: 1000 rcf for 2 min and resuspended in CHO-S-SFM II (Gibco) at a density of 3 million cells […]
Ionic currents were evaluated in the whole-cell configuration using the Qube384 automated planar patch clamp platform (Sophion Bioscience A/S, Ballerup, Denmark). QChip 384X plates, containing 10 patch clamp holes per well, were used to maximize success rate, which was routinely > 95%. For hERG experiments, the external solution was composed of (in mM): 140 NaCl, 2 KCl, 2 CaCl2, 1 MgCl2, 10 HEPES, 5 Glucose, pH 7.4, 350 mOsM. The internal solution contained (in mM): 20 KCl, 10 EGTA, 10 HEPES, 120 KF, pH 7.2, 335 mOsM. The hERG current was elicited from a holding potential of -80 mV by a voltage step to +40 mV for 500 ms, followed by a repolarizing ramp to -80 mV at -0.6 mV/ms. […] Peak hERG current was measured during the ramp. […]
This was followed by the addition of increasing concentrations of test compound, with each exposure lasting 5 minutes. Patch clamp data were analyzed using Analyzer Software 6.4.72 (Sophion Bioscience A/S, Ballerup, Denmark). Current amplitudes were determined by averaging the last 4 currents under each test condition. […]
Hz, and hCav1.2 current was measured as the peak current at 0 mV. […]
exposure lasting 5 minutes. Patch clamp data were analyzed using Analyzer Software 6.4.72. Current amplitudes were determined by averaging the last 4 currents under each test condition. […]

T1 sequence (P14867 28-456): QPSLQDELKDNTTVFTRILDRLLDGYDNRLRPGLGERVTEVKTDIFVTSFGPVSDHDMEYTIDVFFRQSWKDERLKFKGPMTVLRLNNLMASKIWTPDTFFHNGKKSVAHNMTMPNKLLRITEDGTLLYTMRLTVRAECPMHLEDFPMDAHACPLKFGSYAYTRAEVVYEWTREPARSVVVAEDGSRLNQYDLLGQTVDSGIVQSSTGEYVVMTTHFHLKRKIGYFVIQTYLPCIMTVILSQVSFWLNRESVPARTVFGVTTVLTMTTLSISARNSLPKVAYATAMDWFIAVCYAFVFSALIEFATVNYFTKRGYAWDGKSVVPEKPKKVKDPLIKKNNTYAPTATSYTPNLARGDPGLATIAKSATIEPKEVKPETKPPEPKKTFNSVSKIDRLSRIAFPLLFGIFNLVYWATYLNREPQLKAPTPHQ
T1 sequence (P47870 26-512 partner): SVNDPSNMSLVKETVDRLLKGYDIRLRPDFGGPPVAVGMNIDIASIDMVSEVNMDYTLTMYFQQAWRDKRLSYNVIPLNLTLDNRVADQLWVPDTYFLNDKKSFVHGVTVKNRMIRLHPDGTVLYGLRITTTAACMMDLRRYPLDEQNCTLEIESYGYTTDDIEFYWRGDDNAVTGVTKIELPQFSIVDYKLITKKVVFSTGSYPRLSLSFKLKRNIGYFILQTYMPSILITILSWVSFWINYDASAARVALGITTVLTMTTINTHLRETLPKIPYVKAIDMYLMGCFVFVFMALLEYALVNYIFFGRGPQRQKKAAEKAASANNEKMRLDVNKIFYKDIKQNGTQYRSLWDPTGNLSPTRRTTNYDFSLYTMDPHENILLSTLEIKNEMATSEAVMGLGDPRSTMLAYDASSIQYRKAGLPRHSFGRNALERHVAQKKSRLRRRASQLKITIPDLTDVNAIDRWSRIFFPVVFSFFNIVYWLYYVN
T1 sequence (P18507 40-475 partner): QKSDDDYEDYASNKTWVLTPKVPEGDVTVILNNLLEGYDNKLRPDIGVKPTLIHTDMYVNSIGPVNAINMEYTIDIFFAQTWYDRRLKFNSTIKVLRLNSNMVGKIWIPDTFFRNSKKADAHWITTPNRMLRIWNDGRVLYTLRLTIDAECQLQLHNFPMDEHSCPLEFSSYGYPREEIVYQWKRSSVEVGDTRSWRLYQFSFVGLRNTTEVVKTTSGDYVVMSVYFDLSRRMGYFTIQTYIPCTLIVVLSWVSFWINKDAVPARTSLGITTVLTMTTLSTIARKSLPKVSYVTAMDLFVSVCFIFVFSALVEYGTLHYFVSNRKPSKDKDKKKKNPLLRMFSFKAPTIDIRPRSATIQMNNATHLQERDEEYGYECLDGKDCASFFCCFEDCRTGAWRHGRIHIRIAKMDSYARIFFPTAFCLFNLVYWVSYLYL

SMILES: Cc1ccc(N2CCN(C)CC2)cc1C(=O)NC1(c2cc(-c3cnn(C)c3)nc3ccccc23)CC1 [Compound 4]
- inhibition at 30 µM (GABAa1 Receptor): 10%
- % inhibition (Monoamine Oxidase): 16%
- Papp [1]: 31.4 ×10⁻⁶ cm/s
- inhibition at 30 µM [2]: 2%
- pEC50 [3]: 7.86
- EC90 [3]: 56.7 nM
- pIC50 (Human Cathepsin V): < 4.00
- pIC50 [4]: < 4.00
